Key:
[1] = tested on: P. falciparum (Dd2); experiment: In vitro P. falciparum viability assay with excess proline; format: cell-based, Plasmodium falciparum; conditions: Dd2 strain in red blood cells, relative to unmodified RPMI, FIG. 23
Experimental: The activity of halofuginone and amodiaquine as inhibitors of P. falciparum growth was tested in erythrocytes in RPMI with or without excess amino acids as indicated, and IC50 values were normalized to IC50 values obtained under standard conditions using unmodified RPMI (numbers in bold). The absolute IC50 values for halofuginone and amodiaquine for RPMI are reported in parentheses. Fold amino acid indicated (e.g., “5×”) is relative to the concentration of the respective amino acid in RPMI. Fold concentration of D-Pro and L-Orn are relative to L-Pro.
In vitro potency against P. falciparum (DD2) was assessed using a modified version of the method of Plouffe and coworkers (Plouffe et al. Proc. Natl. Acad. Sci. USA 105:9059-64 (2008)). Parasites were cultured in the presence of drug in RPMI (Sigma) containing 4.16 mg/ml Albumax in a total volume of 50 μl at a 2.5% hematocrit and an initial parasitemia of 0.3% in black Greiner GNF clear-bottom plates. Cultures were incubated 72 hr at 37° C. under […], 4% CO2 and 3% O2. At the end of the incubation, SYBR green was added to a dilution of 1:10,000 and plates were stored overnight (or until ready to be read) at −80° C. Just before reading, plates were centrifuged at 700 rpm and fluorescence was read using 480 nm excitation and 530 nm emission frequencies. Compound concentrations that inhibit parasite replication reduce the fluorescence intensity of SYBR green bound to parasite DNA.

[2] = tested on: primary human prostate stromal (hPrSc) cells, s100a4; experiment: S100A4 mRNA in primary human prostate stromal cells; format: cell-based; conditions: with or without TGF 10 ng/ml, FIG. 28
Experimental: Primary human prostate stromal (hPrSc) cells were left in low-serum media (0.2%) for 24 hours, and treated consecutively twice for 48 hours with or without tumor-growth factor beta (TGF; 10 ng/ml), halofuginone (HF) or halofuginol (HFol) at the concentrations indicated. Relative mRNA levels of the fibrosis/tissue invasion marker s100a4 was measured by quantitative real-time PCR using glyceraldehyde-3-phosphate dehydrogenase (GAPDH) as internal control.

[3] = de Jonge et al. 2006; cited from earlier work
[4] = biological target: T1, prolyl tRNA synthetase domain of human EPRS (ProRS) (Homo sapiens, UniProt P07814); experiment: biochemical
T1 sequence (P07814 998-1512 limits assumed): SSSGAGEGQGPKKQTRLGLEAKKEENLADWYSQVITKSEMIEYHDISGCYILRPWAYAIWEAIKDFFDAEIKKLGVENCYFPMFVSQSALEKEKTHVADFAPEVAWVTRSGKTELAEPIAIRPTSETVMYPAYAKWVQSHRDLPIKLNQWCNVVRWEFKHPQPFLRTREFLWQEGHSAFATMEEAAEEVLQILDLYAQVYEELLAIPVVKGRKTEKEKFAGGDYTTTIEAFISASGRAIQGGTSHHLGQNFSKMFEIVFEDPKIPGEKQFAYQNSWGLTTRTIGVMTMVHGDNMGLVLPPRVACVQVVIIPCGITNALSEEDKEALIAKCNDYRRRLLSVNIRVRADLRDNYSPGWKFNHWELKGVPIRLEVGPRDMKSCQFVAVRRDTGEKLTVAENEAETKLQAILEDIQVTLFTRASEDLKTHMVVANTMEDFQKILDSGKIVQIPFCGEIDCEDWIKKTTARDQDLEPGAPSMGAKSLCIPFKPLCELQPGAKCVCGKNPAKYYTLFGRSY
Experimental: (§1) Activity of the Prolyl tRNA synthetase domain of EPRS (ProRS) was measured as ^3H Pro incorporation into the charged tRNA pool. […] Purified enzyme was visualized as a single band by Laemmli gel electrophoresis/Coomassie staining.
(§2) Purified enzyme was visualized as a single band by Laemmli gel electrophoresis/Coomassie staining. […] In preliminary experiments, the assay was established to be linear over the time (6 min) and conditions used (30 degrees, 2 mM ATP, 1 μg/μl total tRNA purified from rabbit liver).
(§3) For the rapid, quantitative isolation of aminoacylated tRNA^pro from synthetase reaction mixtures, reactions were stopped with 100 μl of ice cold 20 mM MOPS pH6.2, 200 mM NaCl, 10 mM EDTA, 30% Glycerol and placed on ice. Samples were added to 15 μl of packed Mono Q HP beads (GE Healthcare) equilibrated in the same buffer. Samples were incubated with beads on ice for 10 min, beads were pelleted by 5 sec centrifugation in a tabletop microfuge and washed 3× 1 ml of wash buffer (20 mM MOPS pH6.2, 50 mM NaCl), and recovered pellets counted in a liquid scintillation counter. Background binding of ^3H Pro to beads (using reaction mix with either no enzyme added or no tRNA added) was negligible (20-40 cpm).

[5] = biological target: T2, ProRS (amino acids 998-1513 of human EPRS) (Homo sapiens, UniProt P07814); experiment: [3H]-HFol binding to immobilized ProRS; conditions: FIG. 3A
T2 construct: Purified 6-his tagged ProRS (amino acids 998-1513 of human EPRS) was immobilized on N-NTA beads; made in house; host or cells: E. coli BL21(DE3), plasmid pKS509
T2 sequence (P07814 998-1512 limits assumed): T1 sequence (P07814 998-1512 limits assumed)
Experimental: B) [^3H]-HFol binding was assayed as described above in the presence of indicated concentrations of proline. […] IMR90 lung fibroblasts were treated with a siRNAs directed against EPRS (Dharmacon) or a control siRNA mixture for 48 hours, and then treated with HF for 2 hours (pGCN2) and examined for EPRS protein levels, GCN2 total protein and phospho-GCN2 by Western blot. D) EPRS depleted IMR90 cells were compared to control cells with respect to HF induction of the AAR marker CHOP by Q-PCR. Equal concentrations of total cellular protein were loaded in each Western blot lane. CHOP expression was standardized to expression of phosphoglycerate kinase 1 (PGK1) and glyceraldehyde-3-phosphate-dehydrogenase (GAPDH). Data shown are representative of three separate experiments.
Prolyl sulfamoyl adenosine (ProSAd) or alanyl sulfamoyl adenosine (AlaSAd), analogs of the corresponding aminoacyl adenylate, were coincubated with [^3H]-HFol as in FIG. 2. […] Binding of [^3H]-HFol was assayed as in FIG. 3, except that the nucleotide type and concentration was varied as indicated.
To examine HF binding to ProRS, ^3H HFol was synthesized by American Radiochemicals (St. Louis) by reduction of MAZ1310 (3) at the ketone with NaB^3H4, followed by removal of the Boc protecting group with 10% trifluoroacetic acid in dichloromethane, and HPLC purification of the ^3H HFol. 100 nM ^3H HFol was incubated with ProRS immobilized on Ni-NTA beads (Pierce) in 50 mM Tris pH 7.5, 5 mM MgCl2, 20 mM Imidazole, 1 mM DTT, 10% glycerol, and nucleotides, proline, or HF derivatives at room temperature for 10 minutes as indicated. After incubation, beads were washed twice with ice-cold wash buffer (50 mM Tris 7.5; 20 mM Imidazole; 1 mM DTT, 20% glycerol). ^3H HFol bound after washing was measured by liquid scintillation counting. Ni-NTA beads incubated with E. coli extracts lacking tagged ProRS were used as a background reference in all experiments.

[6] = biological target: T1, prolyl tRNA synthetase domain of human EPRS (ProRS); conditions: 3H Pro incorporation into tRNA
Experimental: as §1, §2, §3

[7] = tested on: Th17-driven multiple sclerosis model; conditions: Sundrud et al. 2009; cited from earlier work
[8] = tested on: mTORC1 signaling in MEFs; experiment: mTORC1 pathway phosphorylation by Western blot; format: cell-based, mouse; conditions: 100 nM HF, FIG. 16
Experimental: MEFs growing in DME/10% FCS were treated with 100 nM HF or 0.5 μM rapamycin and analyzed by Western blot for phosphorylation of component of the mTor signaling pathway.

O=C(C[C@H]1NCCC[C@@H]1O)Cn1cnc2cc(Br)c(Cl)cc2c1=O (racemic) [HF, 7-bromo-6-chloro-3-[3-(3-hydroxy-2-piperidinyl)-2-oxopropyl]-4(3H)-quinazolinone]
fold increase of effective IC50 on addition of 5× proline [1]: roughly 7 fold | expression of the activated fibroblast marker S100A4 [2]: inhibit | toxicity in humans (nausea, vomiting, fatigue, possibly bleeding complications) [3]: some toxicity | Ki [4]: 18.3 nM | competition of [3H]-HFol binding to ProRS [5]: competed | inhibition of ProRS activity [6]: inhibits | development of disease [7]: inhibits | inhibition of mTORC1 signaling / downstream targets [8]: without concomitant inhibition | inhibition of mTORC1 signaling / downstream targets ([8]; listed as halofuginone): does not directly inhibit
